In test [1] the target is human α1G T-type channels (Homo sapiens, UniProt O43497). Description: T-type calcium channel block, whole cell patch clamp, α1G. The format is cell-based. Conditions: HEK cells stably expressing human α1G; mainly non-inactivated protocol; values above 10,000 nM represented as 10000. The essentials: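 Cells are stable HEK 293 lines carrying human α1G or α1H channels, patched in whole-cell mode. Resting block comes from the non-inactivated pre-pulse; voltage-dependent block from the inactivated protocol.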
human α1G T-type channels, sequence (O43497 whole entry): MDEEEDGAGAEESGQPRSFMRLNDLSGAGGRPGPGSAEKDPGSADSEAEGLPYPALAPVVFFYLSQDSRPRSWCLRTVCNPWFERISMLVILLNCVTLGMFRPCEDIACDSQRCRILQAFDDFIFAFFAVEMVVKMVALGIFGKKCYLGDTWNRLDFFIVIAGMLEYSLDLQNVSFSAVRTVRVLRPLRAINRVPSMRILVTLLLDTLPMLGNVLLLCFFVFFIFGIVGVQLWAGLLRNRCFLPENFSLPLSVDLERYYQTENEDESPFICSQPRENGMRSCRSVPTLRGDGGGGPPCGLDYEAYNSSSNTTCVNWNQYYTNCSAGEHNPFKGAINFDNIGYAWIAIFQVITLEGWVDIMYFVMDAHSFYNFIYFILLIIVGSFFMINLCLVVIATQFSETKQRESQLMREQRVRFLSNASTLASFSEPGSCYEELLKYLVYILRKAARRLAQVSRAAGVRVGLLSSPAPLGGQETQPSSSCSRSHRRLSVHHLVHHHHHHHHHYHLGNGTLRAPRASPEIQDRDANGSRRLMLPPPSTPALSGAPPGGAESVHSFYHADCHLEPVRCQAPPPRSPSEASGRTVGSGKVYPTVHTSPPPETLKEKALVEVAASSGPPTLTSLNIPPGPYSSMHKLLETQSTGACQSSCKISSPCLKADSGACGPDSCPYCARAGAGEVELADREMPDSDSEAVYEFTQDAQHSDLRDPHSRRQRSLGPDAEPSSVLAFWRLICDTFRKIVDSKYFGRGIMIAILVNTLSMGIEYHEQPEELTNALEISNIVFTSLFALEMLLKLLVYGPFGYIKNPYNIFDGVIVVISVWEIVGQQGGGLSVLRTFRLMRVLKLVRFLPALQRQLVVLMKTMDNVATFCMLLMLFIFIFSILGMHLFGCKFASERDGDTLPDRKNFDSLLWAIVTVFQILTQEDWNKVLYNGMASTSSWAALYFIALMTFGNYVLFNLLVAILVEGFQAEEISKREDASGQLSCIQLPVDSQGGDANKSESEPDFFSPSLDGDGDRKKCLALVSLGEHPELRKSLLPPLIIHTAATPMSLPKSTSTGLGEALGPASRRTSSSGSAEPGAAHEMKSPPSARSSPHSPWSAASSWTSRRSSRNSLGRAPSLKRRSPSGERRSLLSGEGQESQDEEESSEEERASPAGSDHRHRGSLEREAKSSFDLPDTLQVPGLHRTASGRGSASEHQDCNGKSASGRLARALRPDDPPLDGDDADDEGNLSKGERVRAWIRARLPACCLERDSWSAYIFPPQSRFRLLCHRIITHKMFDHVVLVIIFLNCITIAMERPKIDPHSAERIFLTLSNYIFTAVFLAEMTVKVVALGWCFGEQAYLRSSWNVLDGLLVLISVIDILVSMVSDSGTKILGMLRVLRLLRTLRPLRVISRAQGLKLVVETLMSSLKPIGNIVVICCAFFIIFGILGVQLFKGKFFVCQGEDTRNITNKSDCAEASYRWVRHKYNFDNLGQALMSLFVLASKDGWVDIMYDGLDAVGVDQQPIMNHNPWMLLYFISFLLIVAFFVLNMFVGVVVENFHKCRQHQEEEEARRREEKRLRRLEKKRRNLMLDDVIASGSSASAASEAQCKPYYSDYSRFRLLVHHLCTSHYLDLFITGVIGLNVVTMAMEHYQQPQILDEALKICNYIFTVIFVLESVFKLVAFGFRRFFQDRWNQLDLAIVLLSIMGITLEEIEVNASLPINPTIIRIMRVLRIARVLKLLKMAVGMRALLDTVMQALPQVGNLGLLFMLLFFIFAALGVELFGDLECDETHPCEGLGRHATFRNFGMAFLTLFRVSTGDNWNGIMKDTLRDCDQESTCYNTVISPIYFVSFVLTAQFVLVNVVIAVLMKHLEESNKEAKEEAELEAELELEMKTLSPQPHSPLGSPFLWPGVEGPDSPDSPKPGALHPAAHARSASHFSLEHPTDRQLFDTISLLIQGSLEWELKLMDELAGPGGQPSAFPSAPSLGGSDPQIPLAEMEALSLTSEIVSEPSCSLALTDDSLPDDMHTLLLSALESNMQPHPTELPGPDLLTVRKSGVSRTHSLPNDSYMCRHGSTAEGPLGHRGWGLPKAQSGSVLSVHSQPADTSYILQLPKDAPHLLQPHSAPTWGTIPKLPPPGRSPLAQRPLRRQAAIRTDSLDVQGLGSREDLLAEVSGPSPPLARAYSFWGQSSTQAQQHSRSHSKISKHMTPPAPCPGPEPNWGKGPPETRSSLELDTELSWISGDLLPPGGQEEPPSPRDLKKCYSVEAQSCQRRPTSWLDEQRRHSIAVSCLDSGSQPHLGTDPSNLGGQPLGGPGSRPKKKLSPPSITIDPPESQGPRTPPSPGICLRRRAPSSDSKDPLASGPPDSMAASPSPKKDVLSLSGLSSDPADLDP

For test [2], the target named is human α1H T-type channels (Homo sapiens, UniProt O95180). Description: T-type calcium channel block, whole cell patch clamp, α1H. The format is cell-based. As to conditions: HEK cells stably expressing human α1H; mainly non-inactivated protocol; values above 10,000 nM represented as 10000. As to the method: T-type calcium channel blocking activity was assayed in human embryonic kidneycells, HEK 293 (Invitrogen), stably transfected with the T-type calcium channel subunits. Briefly, cells were cultured in Dulbecco's modified eagle medium (DMEM) supplemented with 10% fetal bovine serum, 200 U/ml penicillin, and 0.2 mg/mL streptomycin at 37° C. with 5% CO2. At 85% confluency, cells were split with 0.25% trypsin/1 mM EDTA and plated at 10% confluency on glass coverslips. At 12 hours, the medium was replaced, and the cells stably transfected using a standard calcium phosphate protocol and the appropriate calcium channel cDNA's. Fresh DMEM was supplied, and the cells transferred to 28° C./5% CO2.
human α1H T-type channels, sequence (O95180 whole entry): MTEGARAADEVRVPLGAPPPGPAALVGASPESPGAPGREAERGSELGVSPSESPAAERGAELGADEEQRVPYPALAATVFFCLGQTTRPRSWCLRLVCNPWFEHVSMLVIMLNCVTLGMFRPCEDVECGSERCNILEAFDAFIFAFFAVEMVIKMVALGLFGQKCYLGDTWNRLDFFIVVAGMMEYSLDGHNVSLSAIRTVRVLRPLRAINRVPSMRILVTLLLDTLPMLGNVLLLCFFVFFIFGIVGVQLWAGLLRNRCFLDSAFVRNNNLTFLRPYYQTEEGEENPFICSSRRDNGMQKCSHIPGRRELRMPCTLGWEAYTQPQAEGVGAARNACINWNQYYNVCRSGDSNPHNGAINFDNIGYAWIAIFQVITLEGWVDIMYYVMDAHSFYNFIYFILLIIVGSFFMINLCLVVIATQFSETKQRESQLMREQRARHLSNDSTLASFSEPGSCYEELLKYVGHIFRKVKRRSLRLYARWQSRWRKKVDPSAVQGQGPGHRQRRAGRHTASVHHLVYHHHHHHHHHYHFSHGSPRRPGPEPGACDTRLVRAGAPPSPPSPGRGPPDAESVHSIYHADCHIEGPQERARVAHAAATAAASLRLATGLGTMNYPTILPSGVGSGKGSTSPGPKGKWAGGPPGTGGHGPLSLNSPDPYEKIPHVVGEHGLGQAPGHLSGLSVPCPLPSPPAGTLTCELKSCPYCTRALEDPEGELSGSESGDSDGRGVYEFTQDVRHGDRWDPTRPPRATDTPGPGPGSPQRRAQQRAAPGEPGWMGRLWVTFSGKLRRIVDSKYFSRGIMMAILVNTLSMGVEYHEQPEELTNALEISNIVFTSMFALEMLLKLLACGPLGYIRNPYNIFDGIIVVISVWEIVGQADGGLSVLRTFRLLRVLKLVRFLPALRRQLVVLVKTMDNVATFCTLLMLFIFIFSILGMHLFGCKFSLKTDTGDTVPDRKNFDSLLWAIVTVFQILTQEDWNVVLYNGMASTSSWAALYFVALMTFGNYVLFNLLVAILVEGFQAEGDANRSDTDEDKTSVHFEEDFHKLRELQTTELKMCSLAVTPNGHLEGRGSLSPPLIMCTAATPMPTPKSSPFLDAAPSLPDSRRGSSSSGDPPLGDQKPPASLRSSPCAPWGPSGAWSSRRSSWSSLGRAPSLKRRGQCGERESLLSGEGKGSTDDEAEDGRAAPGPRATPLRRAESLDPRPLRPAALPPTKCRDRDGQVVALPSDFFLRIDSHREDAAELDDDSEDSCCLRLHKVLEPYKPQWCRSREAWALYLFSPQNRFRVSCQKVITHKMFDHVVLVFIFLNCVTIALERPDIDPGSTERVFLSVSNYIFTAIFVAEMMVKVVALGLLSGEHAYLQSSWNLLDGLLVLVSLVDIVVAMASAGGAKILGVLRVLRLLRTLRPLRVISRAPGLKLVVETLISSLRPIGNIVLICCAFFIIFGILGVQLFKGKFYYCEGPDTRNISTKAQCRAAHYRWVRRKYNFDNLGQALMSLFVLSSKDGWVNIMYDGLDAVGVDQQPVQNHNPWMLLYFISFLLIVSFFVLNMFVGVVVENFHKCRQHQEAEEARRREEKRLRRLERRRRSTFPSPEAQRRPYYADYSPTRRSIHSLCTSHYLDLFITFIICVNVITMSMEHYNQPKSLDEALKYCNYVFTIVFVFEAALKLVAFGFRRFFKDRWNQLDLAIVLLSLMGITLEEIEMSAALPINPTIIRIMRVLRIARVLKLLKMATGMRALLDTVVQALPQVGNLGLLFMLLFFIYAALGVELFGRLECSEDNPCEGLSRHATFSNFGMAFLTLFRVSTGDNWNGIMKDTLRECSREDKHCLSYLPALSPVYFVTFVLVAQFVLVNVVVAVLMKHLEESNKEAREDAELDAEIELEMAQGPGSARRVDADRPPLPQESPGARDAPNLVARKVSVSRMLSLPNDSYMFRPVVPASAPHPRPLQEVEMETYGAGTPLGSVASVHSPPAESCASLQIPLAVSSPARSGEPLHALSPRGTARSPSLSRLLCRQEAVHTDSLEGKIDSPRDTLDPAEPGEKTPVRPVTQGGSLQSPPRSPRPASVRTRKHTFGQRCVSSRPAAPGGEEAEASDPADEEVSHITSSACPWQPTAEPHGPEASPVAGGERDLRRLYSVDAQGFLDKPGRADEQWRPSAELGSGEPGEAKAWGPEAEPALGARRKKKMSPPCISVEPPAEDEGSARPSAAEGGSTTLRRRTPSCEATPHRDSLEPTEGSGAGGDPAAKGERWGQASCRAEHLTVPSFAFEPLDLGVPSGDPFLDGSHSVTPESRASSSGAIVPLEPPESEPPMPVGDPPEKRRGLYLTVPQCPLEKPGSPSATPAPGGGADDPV
Standard patch-clamp techniques were employed to identify blockers of T-type currents. Briefly, previously described HEK cell lines stably expressing human α1G, α1H, and α1I T-type channels were used for all the recordings (passage #: 4-20, 37° C., 5% CO2). Whole cell patch clamp experiments were performed using an Axopatch 200B amplifier (Axon Instruments, Burlingame, Calif.) linked to a personal computer equipped with pCLAMP software. Data were analyzed using Clampfit (Axon Instruments) and SigmaPlot 4.0 (Jandel Scientific). To obtain T-type currents, plastic dishes containing semi-confluent cells were positioned on the stage of a ZEISS AXIOVERT S100 microscope after replacing the culture medium with external solution (Table 2). Whole-cell patches were obtained using pipettes (borosilicate glass with filament, O.D.: 1.5 mm, I.D.: 0.86 mm, 10 cm length), fabricated on a SUTTER P-97 puller with resistance values of ˜5 MΩ (Table 3).
T-type currents were reliably obtained by using two voltage protocols: • “non-inactivating,” and • “inactivation.”
Test compounds were dissolved in external solution, 0.1-0.01% DMSO. After ˜10 minutes rest, they were applied by gravity close to the cell using a WPI microfil tubing. The “non-inactivated” pre-pulse was used to examine the resting block of a compound. The “inactivated” protocol was employed to study voltage-dependent block.

pIC50: −log10 of the molar value. Where only a bound is given, the exact number is not on record here.

Turning to `CN(Cc1ccc(F)c(C(F)(F)F)c1)C(=O)C(C)(C)S(=O)(=O)c1cccc(C(F)(F)F)c1` [Compound 454, N-(4-fluoro-3-(trifluoromethyl)benzyl)-N,2-dimethyl-2-(3-(trifluoromethyl)phenylsulfonyl)propanamide], the pIC50 in test [1] is 6.21; in test [2], 5.46.
As to `CC(C)(CCNC(=O)c1ccc(Oc2ccc(F)cc2)cc1)S(=O)(=O)c1cccc(C(F)(F)F)c1` [Compound 520, 4-(4-fluorophenoxy)-N-(3-methyl-3-(3-(trifluoromethyl)phenylsulfonyl)butyl) benzamide], the negative logarithm of the IC50 (pIC50) in test [1] was 6.96; in test [2] it was 6.33.
For the compound `CC(C)(CCNC(=O)c1ccc(Cl)cc1S(C)(=O)=O)S(=O)(=O)c1cccc(C(F)(F)F)c1` [Compound 529, 4-chloro-N-(3-methyl-3-(3-(trifluoromethyl)phenylsulfonyl)butyl)-2-(methylsulfonyl)benzamide], the pIC50 in test [1] is 6.11; in test [2], 5.01.
Taken in the same sequence, the figures for `CC(C)(CNS(=O)(=O)c1cccc2cccnc12)S(=O)(=O)c1cccc(C(F)(F)F)c1` [Compound 491, N-(2-methyl-2-(3-(trifluoromethyl)phenylsulfonyl)propyl)quinoline-8-sulfonamide] were 6.33 and < 5.00.
The matching figures for `CC(C)(CCNC(=O)c1cc(F)cc(Cl)c1)S(=O)(=O)c1cccc(C(F)(F)F)c1` [Compound 465, 3-chloro-5-tluoro-N-(3-methyl-3-(3-(trifluoromethyl)phenylsulfonyl)butyl) benzamide]: 7.30 and 6.02.
Taken in the same sequence, the figures for `CC(C)(CCNC(=O)c1ccc(C(F)(F)F)cn1)S(=O)(=O)c1cccc(C(F)(F)F)c1` [Compound 470, N-(3-methyl-3-(3-(trifluoromethyl)phenylsulfonyl)butyl)-5-(trifluoromethyl)picolinamide] were 6.89 and 5.23.
In the case of `CN(CCC(C)(C)S(=O)(=O)c1cccc(C(F)(F)F)c1)C(=O)c1cc(C(F)(F)F)n[nH]1` [Compound 513, N-methyl-N-(3-methyl-3-(3-(trifluoromethyl)phenylsulfonyl)butyl)-3-(trifluoromethyl)-1H-pyrazole-5-carboxamide], the figures for the pIC50 in test [1] and in test [2] were 6.31 and < 5.00, respectively.
The matching figures for `CC(C)(CNC(=O)c1ccc(OCC(F)(F)F)nc1)S(=O)(=O)c1cccc(C(F)(F)F)c1` [Compound 483, N-(2-methyl-2-(3-(trifluoromethyl)phenylsulfonyl)propyl)-6-(2,2,2-trifluoroethoxy) nicotinamide]: 6.05 and 5.41.
Regarding `CC(C)(CNC(=O)c1nc2cc(C(F)(F)F)ccc2[nH]1)S(=O)(=O)c1cccc(C(F)(F)F)c1` [Compound 457, N-(2-methyl-2-(3-(trifluoromethyl)phenylsulfonyl)propyl)-5-(trifluoromethyl)-1H-benzo[d]imidazole-2-carboxamide], the negative-log IC50 (pIC50) in test [1] was 6.25; in test [2], 5.92.
The matching figures for `CC(C)(CNC(=O)c1cc(F)cc(Cl)c1)S(=O)(=O)c1cccc(C(F)(F)F)c1` [Compound 455, 3-chloro-5-fluoro-N-(2-methyl-2-(3-(trifluoromethyl)phenylsulfonyl)propyl)benzamide]: 6.40 and 5.60.
Taken in the same sequence, the figures for “1-(trifluoromethyl)-N-((1R,4R)-4- ((3- (trifluoromethyl)phenylsulfonyl) methyl)cyclohexyl) cyclobutanecarboxamide [Compound 109]” were < 5.00 and < 5.00.
In the case of `CC(C)(CCNC(=O)c1ccc(Oc2ccc(Cl)cc2)cc1)S(=O)(=O)c1cc(F)cc(C(F)(F)F)c1` [Compound 537, 4-(4-chlorophenoxy)-N-(3-(3-fluoro-5-(trifluoromethyl)phenylsulfonyl)-3-methylbutyl)benzamide], the figures for the pIC50 in test [1] and in test [2] were 6.33 and 6.13, respectively.
Taken in the same sequence, the figures for `CC(C)(CC(=O)Nc1ccc(Oc2ccc(F)cc2)cc1)S(=O)(=O)c1cccc(C(F)(F)F)c1` [Compound 486, N-(4-(4-fluorophenoxy)phenyl)-3-methyl-3-(3-(trifluoromethyl)phenylsulfonyl)butanamide] were 6.29 and 6.07.
`CC(C)(CNC(=O)c1cn2ccc(C(F)(F)F)cc2n1)S(=O)(=O)c1cccc(C(F)(F)F)c1` [Compound 505, N-(2-methyl-2-(3-(trifluoromethyl)phenylsulfonyl)propyl)-7-(trifluoromethyl)imidazo[1,2-a]pyridine-2-carboxamide]: the pIC50 is 6.21 in test [1] and 5.00 in test [2].
Consider `COc1c(C)cc(C(=O)NCC(C)(C)S(=O)(=O)c2cccc(C(F)(F)F)c2)cc1C` [Compound 481, 4-methoxy-3,5-dimethyl-N-(2-methyl-2-(3-(trifluoromethyl)phenylsulfonyl)propyl) benzamide], for which the pIC50 is 6.14 in test [1] and < 5.00 in test [2].
`CC(C)(CCNC(=O)c1cn2ccc(C(F)(F)F)cc2n1)S(=O)(=O)c1cccc(C(F)(F)F)c1` [Compound 507, N-(3-methyl-3-(3-(trifluoromethyl)phenylsulfonyl)butyl)-7-(trifluoromethyl)imidazo[1,2-a]pyridine-2-carboxamide]: the figures for the pIC50 in test [1] and in test [2] were 6.42 and 5.08, respectively.
Taken in the same sequence, the figures for `CC(C)S(=O)(=O)c1cc(C(F)(F)F)cnc1C(=O)NCC(C)(C)S(=O)(=O)c1cccc(C(F)(F)F)c1` [Compound 527, 3-(isopropylsulfonyl)-N-(2-methyl-2-(3-(trifluoromethyl)phenylsulfonyl)propyl)-5-(trifluoromethyl)picolinamide] were 7.15 and < 5.00.
Taken in the same sequence, the figures for `CC(C)(CNC(=O)c1ccc(F)c(C(F)(F)F)c1)S(=O)(=O)c1cccc(C(F)(F)F)c1` [Compound 456, 4-fluoro-N-(2-methyl-2-(3-(trifluoromethyl)phenylsulfonyl)propyl)-3-(trifluoromethyl)benzamide] were 6.15 and 6.04.
In the case of `CC(C)(C(=O)Nc1ccc(Oc2ccc(F)cc2)nc1)S(=O)(=O)c1cccc(C(F)(F)F)c1` [Compound 503, N-(6-(4-fluorophenoxy)pyridin-3-yl)-2-methyl-2-(3-(trifluoromethyl)phenylsulfonyl)propanamide], the values for the pIC50 in test [1] and in test [2] were 6.72 and 5.55, respectively.
The matching figures for `CN(CCc1ccc(Cl)c(Cl)c1)C(=O)C(C)(C)S(=O)(=O)c1cccc(C(F)(F)F)c1` [Compound 453, N-(3,4-dichlorophenethyl)-N,2-dimethyl-2-(3-(trifluoromethyl)phenylsulfonyl)propanamide]: 6.16 and 5.41.
The matching figures for `CC(C)(CN[C@H]1CC[C@H](C(F)(F)F)CC1)S(=O)(=O)c1cccc(C(F)(F)F)c1` [Compound 517, (1R,4R)-N-(2-methyl-2-(3-(trifluoromethyl)phenylsulfonyl)propyl)-4-(trifluoromethyl)cyclo hexanamine]: 6.77 and 5.21.
The matching figures for `CC(C)(CNS(=O)(=O)c1ccc(C(F)(F)F)cc1Cl)S(=O)(=O)c1cccc(C(F)(F)F)c1` [Compound 498, 2-chloro-N-(2-methyl-2-(3-(trifluoromethyl)phenylsulfonyl)propyl)-4-(trifluoromethyl) benzenesulfonamide]: 6.59 and 5.86.
Turning to `CC(C)S(=O)(=O)c1cc(C(F)(F)F)cnc1C(=O)NCCC(C)(C)S(=O)(=O)c1cccc(C(F)(F)F)c1` [Compound 528, 3-(isopropylsulfonyl)-N-(3-methyl-3-(3-(trifluoromethyl)phenylsulfonyl)butyl)-5-(trifluoromethyl)picolinamide], the pIC50 in test [1] is 7.10; in test [2] it was 5.62.
`CC(C)(CNC(=O)c1cc(C(F)(F)F)ccn1)S(=O)(=O)c1cccc(C(F)(F)F)c1` [Compound 475, N-(2-methyl-2-(3-(trifluoromethyl)phenylsulfonyl)propyl)-4-(trifluoromethyl)picolinamide]: the pIC50 in test [1] was 6.32; in test [2], 5.16.
`CC(C)(CCNC(=O)c1ccc(C(F)(F)F)cc1S(C)(=O)=O)S(=O)(=O)c1cccc(C(F)(F)F)c1` [Compound 469, N-(3-methyl-3-(3-(trifluoromethyl)phenylsulfonyl)butyl)-2-(methylsulfonyl)-4-(trifluoromethyl)benzamide]: the pIC50 is 6.37 in test [1] and 5.30 in test [2].

The record behind these values is patent US20120245137A1 (Zalicus Pharmaceuticals Ltd., priority 2009, published 2012).
